From article PMC6556873, “Rapid Covalent-Probe Discovery by Electrophile-Fragment Screening” (Journal of the American Chemical Society, 2019)
Read-outs that look alike come from different tables or passages of the source.

Tests used:
NUDT7 = target: T1, NUDT7 (Homo sapiens, UniProt P0C024); design: Intact protein LC/MS covalent labelling, fragments in pools of five, 200 uM each, 4 °C; settings: 24 h, 4 °C, pool of five; 200 µM; covalent
T1 construct: residues 14-235, E. coli, pNIC28-Bsa4, N-terminal His6 tag removed by TEV, construct 26672 Da
T1 sequence (P0C024 14-235): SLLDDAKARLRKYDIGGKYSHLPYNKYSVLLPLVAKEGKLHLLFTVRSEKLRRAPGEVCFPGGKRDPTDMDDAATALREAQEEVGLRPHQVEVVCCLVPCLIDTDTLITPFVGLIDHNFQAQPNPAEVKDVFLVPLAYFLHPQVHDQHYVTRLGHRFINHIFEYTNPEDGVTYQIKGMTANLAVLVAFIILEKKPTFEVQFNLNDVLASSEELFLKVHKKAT
Protocol: (§1) Incubations were performed at 200 μM for each compound and 2 μM of protein (10 μM for BSA) for 24 h at 4 °C with moderate shaking. Incubation buffers varied among proteins (PBS pH 7.4 for QSOX1 and BSA; 10 mM HEPES pH 7.5, 0.3 M NaCl, 0.5 mM TCEP for PCAF, UPS8, and NUDT7; […]; 10 mM Na2HPO4 pH 7.5 100 mM NaCl 5 mM β-mercaptoethanol for NV3CP; 20 mM Na phosphate pH 7.5 for NNMT; […]. The reaction was stopped by quenching with formic acid, 0.4% final concentration. Each protein was incubated with the electrophilic library in pools of five compounds per well. The pool’s composition maximized the difference in mass between fragments in the same well. Incubations were performed with each fragment at 200 μM, for 24 h at 4 °C, to allow the screening of proteins that are not stable for long time periods at higher temperatures. Following incubation, we used intact protein [compound left out] chromatography/mass spectrometry (LC/MS) to identify the fragments and quantify their labeling (Figure 3A). […] There was good agreement between the percent of labeling of NUDT7 by 100 random individual compounds and that obtained in pools of five (R^2=0.78; Figure S6 and Data set 2 in the Supporting Information).

OTUB2 (OTUB2A) = target: T2, OTUB2 (OTUB2A) (Homo sapiens, UniProt Q96DC9); design: Intact protein LC/MS covalent labelling, fragments in pools of five, 200 uM each, 4 °C; settings: 24 h, 4 °C, pool of five; 200 µM; covalent
T2 construct: full length residues 1-234, E. coli BL21(DE3)-R3, His tag removed by TEV, construct 27312 Da
T2 sequence (Q96DC9 1-234): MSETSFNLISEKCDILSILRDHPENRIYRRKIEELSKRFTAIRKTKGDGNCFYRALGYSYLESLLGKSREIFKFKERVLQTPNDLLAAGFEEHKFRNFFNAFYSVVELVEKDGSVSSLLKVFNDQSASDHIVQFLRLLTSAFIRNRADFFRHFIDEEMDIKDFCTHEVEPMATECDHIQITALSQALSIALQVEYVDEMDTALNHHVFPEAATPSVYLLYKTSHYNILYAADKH
Protocol: as §1

PCAF = target: T3, PCAF (Homo sapiens, UniProt Q92831); design: Intact protein LC/MS covalent labelling, fragments in pools of five, 200 uM each, 4 °C; settings: 24 h, 4 °C, pool of five; 200 µM; covalent
T3 construct: gene KAT2B
T3 sequence (Q92831 whole entry, the tested form may be a part): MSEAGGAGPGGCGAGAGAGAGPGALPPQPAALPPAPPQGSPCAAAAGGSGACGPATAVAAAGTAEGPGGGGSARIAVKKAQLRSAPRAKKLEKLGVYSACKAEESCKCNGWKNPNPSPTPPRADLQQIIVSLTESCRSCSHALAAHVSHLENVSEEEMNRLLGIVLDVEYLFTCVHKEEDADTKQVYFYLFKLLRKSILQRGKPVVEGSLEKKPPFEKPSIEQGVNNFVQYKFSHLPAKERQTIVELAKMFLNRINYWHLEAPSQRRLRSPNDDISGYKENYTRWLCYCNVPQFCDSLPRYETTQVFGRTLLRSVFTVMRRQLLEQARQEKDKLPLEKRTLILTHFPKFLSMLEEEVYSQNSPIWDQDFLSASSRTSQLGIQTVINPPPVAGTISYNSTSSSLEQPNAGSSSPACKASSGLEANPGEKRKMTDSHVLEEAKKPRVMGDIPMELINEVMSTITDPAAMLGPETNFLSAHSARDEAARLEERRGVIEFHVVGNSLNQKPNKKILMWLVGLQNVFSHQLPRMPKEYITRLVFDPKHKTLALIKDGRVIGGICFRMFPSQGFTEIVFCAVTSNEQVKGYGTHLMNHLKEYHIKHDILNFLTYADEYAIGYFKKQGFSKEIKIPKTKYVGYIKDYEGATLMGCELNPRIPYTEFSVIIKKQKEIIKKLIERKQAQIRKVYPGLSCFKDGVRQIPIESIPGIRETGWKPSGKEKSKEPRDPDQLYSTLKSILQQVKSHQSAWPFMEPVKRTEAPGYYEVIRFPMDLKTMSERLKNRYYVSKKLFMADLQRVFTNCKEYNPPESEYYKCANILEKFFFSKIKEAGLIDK
Protocol: as §1

BSA = target: T4, BSA (Bos taurus, UniProt P02769); design: Intact protein LC/MS covalent labelling, fragments in pools of five, 200 uM each, 4 °C; settings: 24 h, 4 °C, pool of five; 200 µM; covalent
T4 construct: gene ALB
T4 sequence (P02769 whole entry, the tested form may be a part): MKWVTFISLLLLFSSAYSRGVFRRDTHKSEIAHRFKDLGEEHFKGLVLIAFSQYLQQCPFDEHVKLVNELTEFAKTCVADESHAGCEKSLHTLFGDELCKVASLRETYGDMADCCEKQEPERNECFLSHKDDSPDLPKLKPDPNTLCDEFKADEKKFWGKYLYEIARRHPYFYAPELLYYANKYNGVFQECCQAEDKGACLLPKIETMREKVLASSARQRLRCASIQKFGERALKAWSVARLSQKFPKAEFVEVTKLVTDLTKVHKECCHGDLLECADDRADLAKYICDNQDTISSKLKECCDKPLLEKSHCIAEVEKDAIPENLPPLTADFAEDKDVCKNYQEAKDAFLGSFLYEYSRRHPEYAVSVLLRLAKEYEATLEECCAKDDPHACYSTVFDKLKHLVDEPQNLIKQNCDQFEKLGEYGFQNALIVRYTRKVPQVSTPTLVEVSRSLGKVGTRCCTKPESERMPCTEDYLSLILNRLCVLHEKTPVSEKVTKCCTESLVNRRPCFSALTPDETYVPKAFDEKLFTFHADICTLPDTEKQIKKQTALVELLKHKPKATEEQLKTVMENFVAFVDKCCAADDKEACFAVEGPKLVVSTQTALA
Protocol: as §1

in vitro [1] = test: in vitro; design: species or system CCD841, HEK293; settings: human, hb2 cells, read-out: HB-2 Cells Viability (%)
in vitro [2] = test: in vitro; design: species or system HB2, CCD841; settings: human, hek293 cells
in vitro [3] = test: in vitro; design: species or system HB2, HEK293; settings: human, ccd841 cells

Structure (SMILES) | NUDT7 (NUDT7) | OTUB2 (OTUB2 (OTUB2A)) | PCAF (PCAF) | BSA (BSA) | viability at 48 h, 10 µM (in vitro [1]) | viability at 48 h, 10 µM (in vitro [2]) | viability at 48 h, 10 µM (in vitro [3])
CC(NC(=O)CCl)C1CC1 (stereo not shown) [PCM-0102157] | 0 | 0.1 | 0 | 0 | 87.6% | 111% | 103%
O=C(CCl)N1CCc2ccccc21 [PCM-0102160] | 0 | 0 | 0 | 0 | 6.1% | 16.3% | 44.6%
CCC(C)(C)NC(=O)CCl [PCM-0102161] | 0 | 0.09 | 0 | 0 | 99.3% | 116% | 100%
NS(=O)(=O)c1cccc(NC(=O)CCl)c1 [PCM-0102162] | 0 | 0.58 | 0 | 0 | 17.4% | 1.1% | 35.4%
O=C(CCl)Nc1ccc(O)cc1 [PCM-0102163] | 0 | 0.16 | 0 | 0 | 67.8% | 38.2% | 60.5%
NC(=O)c1c(NC(=O)CCl)sc2c1CCC2 [PCM-0102164] | 0.28 | 0 | 0 | 0 | 27.2% | 2.6% | 25.6%
Cc1cc(S(N)(=O)=O)cc(NC(=O)CCl)c1C [PCM-0102165] | 0.09 | 0.12 | 0 | 0 | 34.5% | 8.3% | 61.3%
Cc1cccc(C(=O)O)c1NC(=O)CCl [PCM-0102167] | 0 | 0 | 0 | 0 | 101% | 104% | 102%
Cc1ccc(-c2csc(NC(=O)CCl)n2)cc1 [PCM-0102168] | 0.4 | 0 | 0 | 0 | 5.5% | 5.5% | 67.9%
Cc1ccc(NC(=O)NC(=O)CCl)c(C)c1 [PCM-0102171] | 0.2 | 0.1 | 0 | 0 | 78.8% | 74.7% | 53.9%
CC(=O)Nc1cccc(NC(=O)CCl)c1 [PCM-0102172] | 0 | 0 | 0 | 0 | 35.9% | 4.7% | 53.4%
COc1ccccc1N1CCN(C(=O)CCl)CC1.Cl [PCM-0102173] | 0 | 0 | 0 | 0 | 44.1% | 58.2% | 76.9%
O=C(CCl)NCc1cccc(Cl)c1 [PCM-0102174] | 0 | 0.25 | 0 | 0 | 83.4% | 74.3% | 79.9%
Cc1cc(NC(=O)CCl)ccc1N1CCCC1 [PCM-0102175] | 0.13 | 0.39 | 0 | 0.15 | 10.2% | 2.9% | 45.1%
Cc1ccc(NC(=O)CCl)cc1S(N)(=O)=O [PCM-0102177] | 0.1 | 0.27 | 0 | 0 | 8.9% | 1.4% | 28.2%
CN(C(=O)CCl)C1CCS(=O)(=O)C1 (stereo not shown) [PCM-0102178] | 0 | 0 | 0 | 0 | 56.9% | 31.5% | 72.1%
CC(NC(=O)CCl)c1cccs1 (stereo not shown) [PCM-0102180] | 0.16 | 0.55 | 0 | 0.24 | 93.5% | 75.1% | 78.5%
O=C(CCl)Nc1cccc(-c2nnc3n2CCCCC3)c1 [PCM-0102181] | 0 | 0 | 0 | 0 | 51.2% | 39.2% | 73.2%
Cc1c(C#N)c(NC(=O)CCl)n(C2CCCC2)c1C [PCM-0102183] | 0.28 | 0 | 0 | 0 | 23.9% | 9.1% | 56.1%
Cc1cccc(N2CCN(C(=O)CCl)CC2)c1.Cl [PCM-0102185] | 0.05 | 0 | 0 | 0 | 13.1% | 35.9% | 65.7%
CCN(C(=O)CCl)c1nc2ccccc2s1 [PCM-0102186] | 0.33 | 0 | 0 | 0 | 69.7% | 69.9% | 16.1%
O=C(CCl)Nc1nnc(C2CC2)o1 [PCM-0102187] | 0 | 0 | 0 | 0 | 106% | 97.2% | 114%
